Laboratory results as given in paper PMC6440464 (PeerJ, 2019).
Values joined by “and” are separate entries in the source; they are usually repeats but may differ in a detail not shown here. Equal values may be shown once.

Assays:
[1] = Stability of the analytes in rat plasma QC samples at different storage conditions; assay type: in vitro ADME; conditions: for Post-preparation stability (4℃ for 24 h) Measured Conc.: extracted plasma samples in auto sampler rack; for Post-preparation stability (4℃ for 24 h) Measured Conc. / Free-thaw stability (3 free-thaw cycles) Measured Conc. / Long-term stability (-80℃ for 15 d) Measured Conc. / Short-term stability (25℃ for 12 h) Measured Conc.: n=5; for Free-thaw stability, Test Conc., AV / Free-thaw stability, Test Conc. / Post-preparation stability, Test Conc., AV / Post-preparation stability, Test Conc. / Short-term stability, Test Conc., AV / Short-term stability, Test Conc. / Long-term stability, Test Conc., AV / Long-term stability, Test Conc.: plasma; for Free-thaw stability, Test Conc., AV / Free-thaw stability, Test Conc.: 3 free-thaw cycles; for Free-thaw stability, Test Conc., AV / Post-preparation stability, Test Conc., AV / Short-term stability, Test Conc., AV / Long-term stability, Test Conc., AV: AV of 5 replicates; for Free-thaw stability, Test Conc. / Post-preparation stability, Test Conc. / Short-term stability, Test Conc. / Long-term stability, Test Conc.: single replicates NO.1-NO.5, listed as Quercetin-3-O-β-D-glucuronide (QG); for Post-preparation stability, Test Conc., AV / Post-preparation stability, Test Conc.: 4℃ for 24 h; for Short-term stability, Test Conc., AV / Short-term stability, Test Conc.: 25℃ for 12 h; for Long-term stability, Test Conc., AV / Long-term stability, Test Conc.: -80℃ for 15 d; for Free-thaw stability (3 free-thaw cycles) Measured Conc. / Long-term stability (-80℃ for 15 d) Measured Conc. / Short-term stability (25℃ for 12 h) Measured Conc.: rat plasma
Experimental: The stabilities of Qr, IQ, and QG in plasma were assessed by analyzing QC samples at different storage conditions. The stabilities of three flavonoids in plasma were studied by analyzing three concentration levels of QC samples (n = 5) at room temperature (25 °C) for 12 h, at long-term storage (−80 °C for 15 days), after three freeze (−80 °C) and thaw (room temperature) cycles, and at auto sampler rack storage (4 °C for 24 h).

lipid peroxidation = tested on: lipid peroxidation; set-up: method as in Shirai et al., 2001; conditions: 10 mM; ref Shirai et al., 2001; cited from earlier work
[2] = set-up: method as in Yoshino et al., 2011; conditions: ref Yoshino et al., 2011; cited from earlier work
[3] = high QC, nominal 8400.0 (Qr), 976.0 (IQ), 10000.0 (QG) ng/mL
[4] = low QC, nominal 65.6 (Qr), 48.8 (IQ), 100.0 (QG) ng/mL
[5] = medium QC, nominal 525.0 (Qr), 244.0 (IQ), 1000.0 (QG) ng/mL

Structure (SMILES): O=C(O)[C@H]1O[C@@H](Oc2c(-c3ccc(O)c(O)c3)oc3cc(O)cc(O)c3c2=O)[C@H](O)[C@@H](O)[C@@H]1O [QG, Quercetin-3-O-β-D-glucuronide]
- Post-preparation stability (4℃ for 24 h) Measured Conc. [1, 3]: 9409.6 ± 569.5 ng/mL
- Post-preparation stability (4℃ for 24 h) Measured Conc. [1, 4]: 97.2 ± 6.0 ng/mL
- Post-preparation stability (4℃ for 24 h) Measured Conc. [1]: 910.7 ± 68.0 ng/mL
- Free-thaw stability, Test Conc., AV ([1]; nominal Conc. 100.00 ng/mL): 98.37 ng/mL
- Free-thaw stability, Test Conc. ([1]; nominal Conc. 100.00 ng/mL): 105.25 ng/mL and 86.98 ng/mL and 102.05 ng/mL and 100.21 ng/mL and 97.34 ng/mL
- Free-thaw stability, Test Conc., AV ([1]; nominal Conc. 1000.00 ng/mL): 954.92 ng/mL
- Free-thaw stability, Test Conc. ([1]; nominal Conc. 1000.00 ng/mL): 860.30 ng/mL and 851.00 ng/mL and 988.40 ng/mL and 1022.10 ng/mL and 1052.80 ng/mL
- Free-thaw stability, Test Conc., AV ([1]; nominal Conc. 10000.00 ng/mL): 9353.20 ng/mL
- Free-thaw stability, Test Conc. ([1]; nominal Conc. 10000.00 ng/mL): 8753.00 ng/mL and 9439.00 ng/mL and 10058.00 ng/mL and 9832.00 ng/mL and 8684.00 ng/mL
- Post-preparation stability, Test Conc., AV ([1]; nominal Conc. 100.00 ng/mL): 97.18 ng/mL
- Post-preparation stability, Test Conc. ([1]; nominal Conc. 100.00 ng/mL): 105.22 ng/mL and 101.31 ng/mL and 93.07 ng/mL and 95.83 ng/mL and 90.49 ng/mL
- Post-preparation stability, Test Conc., AV ([1]; nominal Conc. 1000.00 ng/mL): 910.72 ng/mL
- Post-preparation stability, Test Conc. ([1]; nominal Conc. 1000.00 ng/mL): 905.70 ng/mL and 890.50 ng/mL and 1027.40 ng/mL and 853.70 ng/mL and 876.30 ng/mL
- Post-preparation stability, Test Conc., AV ([1]; nominal Conc. 10000.00 ng/mL): 9409.60 ng/mL
- Post-preparation stability, Test Conc. ([1]; nominal Conc. 10000.00 ng/mL): 8728.00 ng/mL and 8919.00 ng/mL and 9825.00 ng/mL and 10046.00 ng/mL and 9530.00 ng/mL
- Short-term stability, Test Conc., AV ([1]; nominal Conc. 100.00 ng/mL): 89.29 ng/mL
- Short-term stability, Test Conc. ([1]; nominal Conc. 100.00 ng/mL): 86.17 ng/mL and 83.32 ng/mL and 97.85 ng/mL and 94.48 ng/mL and 84.64 ng/mL
- Short-term stability, Test Conc., AV ([1]; nominal Conc. 1000.00 ng/mL): 943.20 ng/mL
- Short-term stability, Test Conc. ([1]; nominal Conc. 1000.00 ng/mL): 905.00 ng/mL and 917.50 ng/mL and 1029.40 ng/mL and 991.30 ng/mL and 872.80 ng/mL
- Short-term stability, Test Conc., AV ([1]; nominal Conc. 10000.00 ng/mL): 9334.60 ng/mL
- Short-term stability, Test Conc. ([1]; nominal Conc. 10000.00 ng/mL): 9717.00 ng/mL and 8935.00 ng/mL and 9106.00 ng/mL and 9353.00 ng/mL and 9562.00 ng/mL
- Long-term stability, Test Conc., AV ([1]; nominal Conc. 100.00 ng/mL): 98.57 ng/mL
- Long-term stability, Test Conc. ([1]; nominal Conc. 100.00 ng/mL): 87.09 ng/mL and 91.05 ng/mL and 96.73 ng/mL and 107.32 ng/mL and 110.64 ng/mL
- Long-term stability, Test Conc., AV ([1]; nominal Conc. 1000.00 ng/mL): 941.48 ng/mL
- Long-term stability, Test Conc. ([1]; nominal Conc. 1000.00 ng/mL): 839.70 ng/mL and 1104.80 ng/mL and 874.40 ng/mL and 932.10 ng/mL and 956.40 ng/mL
- Long-term stability, Test Conc., AV ([1]; nominal Conc. 10000.00 ng/mL): 9985.00 ng/mL
- Long-term stability, Test Conc. ([1]; nominal Conc. 10000.00 ng/mL): 10543.00 ng/mL and 10195.00 ng/mL and 11086.00 ng/mL and 9530.00 ng/mL and 8571.00 ng/mL
- Free-thaw stability (3 free-thaw cycles) Measured Conc. [1, 3]: 9353.2 ± 620.8 ng/mL
- Long-term stability (-80℃ for 15 d) Measured Conc. [1, 3]: 9985.0 ± 971.4 ng/mL
- Short-term stability (25℃ for 12 h) Measured Conc. [1, 3]: 9334.6 ± 320.2 ng/mL
- Free-thaw stability (3 free-thaw cycles) Measured Conc. [1, 4]: 98.4 ± 7.0 ng/mL
- Long-term stability (-80℃ for 15 d) Measured Conc. [1, 4]: 98.6 ± 10.2 ng/mL
- Short-term stability (25℃ for 12 h) Measured Conc. [1, 4]: 89.3 ± 6.5 ng/mL
- Free-thaw stability (3 free-thaw cycles) Measured Conc. [1, 5]: 954.9 ± 93.5 ng/mL
- Long-term stability (-80℃ for 15 d) Measured Conc. [1, 5]: 941.5 ± 102.3 ng/mL
- Short-term stability (25℃ for 12 h) Measured Conc. [1, 5]: 943.2 ± 64.9 ng/mL
- Inhibition of lipid peroxidation (lipid peroxidation): can inhibit lipid peroxidation
- Toxicity compared with its aglycone [2]: much less toxic
